Data published in patent US10131652B2, “Pyrimidinyloxy benzene derivatives as herbicides” (E. I. DU PONT DE NEMOURS AND COMPANY, priority 2014, dated 2018).

How the values were obtained:
Test in all cases: Test D pre-/postemergence plant response
Type in all cases: in vivo
[1] = system: ragweed (common ragweed, Ambrosia elatior); conditions: Postemergence; for Plant response rating, Ragweed: scale 0 to 100, 0 no effect, 100 complete control
Outline: (§1)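 Seeds sown in loam–sand blend got preemergence sprays of test chemicals in a non-phytotoxic solvent with surfactant; postemergence sprays went on plants at 1- to 4-leaf stage (2 to 18 cm) in peat/vermiculite medium. After 13 to 15 days in greenhouse, visual injury versus controls scored 0 (no effect) to 100 (complete control).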

[2] = system: morningglory (Ipomoea coccinea); conditions: Postemergence; for Plant response rating, Morningglory: scale 0 to 100, 0 no effect, 100 complete control
Outline: as §1

[3] = system: giant foxtail (Setaria faberii); conditions: Postemergence; for Foxtail, Giant plant response rating: scale 0 to 100 (0 no effect, 100 complete control); for Plant response rating, Foxtail, Giant: scale 0 to 100, 0 no effect, 100 complete control
Outline: as §1

[4] = system: barnyardgrass (Echinochloa crus-galli); conditions: Postemergence; for Barnyardgrass plant response rating: scale 0 to 100 (0 no effect, 100 complete control); for Plant response rating, Barnyardgrass: scale 0 to 100, 0 no effect, 100 complete control
Outline: as §1

[5] = system: blackgrass (Alopecurus myosuroides); conditions: Postemergence; for Blackgrass plant response rating: scale 0 to 100 (0 no effect, 100 complete control); for Plant response rating, Blackgrass: scale 0 to 100, 0 no effect, 100 complete control
Outline: as §1

[6] = system: large (Lg) crabgrass (Digitaria sanguinalis); conditions: Postemergence; for Crabgrass, Large plant response rating: scale 0 to 100 (0 no effect, 100 complete control); for Plant response rating, Crabgrass, Large: scale 0 to 100, 0 no effect, 100 complete control
Outline: as §1

[7] = system: winter wheat (Triticum aestivum); conditions: Postemergence; for Plant response rating, Wheat: scale 0 to 100, 0 no effect, 100 complete control
Outline: as §1

soybean (Glycine max) = conditions: Postemergence; for Plant response rating, Soybean: scale 0 to 100, 0 no effect, 100 complete control
Outline: as §1

[8] = system: galium (catchweed bedstraw, Galium aparine); conditions: Postemergence; for Plant response rating, Galium: scale 0 to 100, 0 no effect, 100 complete control
Outline: as §1

[9] = system: johnsongrass (Sorghum halepense); conditions: Postemergence; for Plant response rating, Johnsongrass: scale 0 to 100, 0 no effect, 100 complete control
Outline: as §1

[10] = system: oilseed rape (Brassica napus); conditions: Postemergence; for Plant response rating, Oilseed Rape: scale 0 to 100, 0 no effect, 100 complete control
Outline: as §1

[11] = system: waterhemp (common waterhemp, Amaranthus rudis); conditions: Postemergence; for Plant response rating, Waterhemp: scale 0 to 100, 0 no effect, 100 complete control
Outline: as §1

corn (Zea mays) = conditions: Postemergence; for Corn plant response rating: scale 0 to 100 (0 no effect, 100 complete control); for Plant response rating, Corn: scale 0 to 100, 0 no effect, 100 complete control
Outline: as §1

[12] = system: yellow nutsedge (Cyperus esculentus); conditions: Postemergence; for Plant response rating, Nutsedge, Yellow: scale 0 to 100, 0 no effect, 100 complete control
Outline: as §1

[13] = system: Italian ryegrass (Lolium multiflorum); conditions: Postemergence; for Plant response rating, Ryegrass, Italian: scale 0 to 100, 0 no effect, 100 complete control
Outline: as §1

[14] = system: pigweed (Amaranthus retroflexus); conditions: Postemergence; for Plant response rating, Pigweed: scale 0 to 100, 0 no effect, 100 complete control
Outline: as §1

[15] = system: velvetleaf (Abutilon theophrasti); conditions: Postemergence; for Plant response rating, Velvetleaf: scale 0 to 100, 0 no effect, 100 complete control
Outline: as §1

[16] = system: lambsquarters (Chenopodium album); conditions: Postemergence; for Plant response rating, Lambsquarters: scale 0 to 100, 0 no effect, 100 complete control
Outline: as §1

[17] = 31 g ai/ha, scale 0 to 100 (0 no effect, 100 complete control)

Fc1cccc(Oc2ncc(Cl)cn2)c1-c1cc(C2CC2)on1 [Compound 130]
Ragweed plant response rating [1, 17]: 60
Plant response rating, Ragweed ([1]; 62 g ai/ha): 75
Plant response rating, Ragweed ([1]; 125 g ai/ha): 40
Morningglory plant response rating [2, 17]: 80
Plant response rating, Morningglory ([2]; 62 g ai/ha): 85
Plant response rating, Morningglory ([2]; 125 g ai/ha): 85
Foxtail, Giant plant response rating ([3]; 16 g ai/ha): 5
Foxtail, Giant plant response rating ([3]; 31 g ai/ha): 5
Plant response rating, Foxtail, Giant ([3]; 62 g ai/ha): 10
Plant response rating, Foxtail, Giant ([3]; 125 g ai/ha): 25
Barnyardgrass plant response rating ([4]; 16 g ai/ha): 10
Barnyardgrass plant response rating ([4]; 31 g ai/ha): 10
Plant response rating, Barnyardgrass ([4]; 62 g ai/ha): 10
Plant response rating, Barnyardgrass ([4]; 125 g ai/ha): 25
Blackgrass plant response rating ([5]; 16 g ai/ha): 0
Blackgrass plant response rating ([5]; 31 g ai/ha): 5
Plant response rating, Blackgrass ([5]; 62 g ai/ha): 20
Plant response rating, Blackgrass ([5]; 125 g ai/ha): 30
Crabgrass, Large plant response rating ([6]; 16 g ai/ha): 10
Crabgrass, Large plant response rating ([6]; 31 g ai/ha): 20
Plant response rating, Crabgrass, Large ([6]; 62 g ai/ha): 20
Plant response rating, Crabgrass, Large ([6]; 125 g ai/ha): 25
Wheat plant response rating [7, 17]: 5
Plant response rating, Wheat ([7]; 62 g ai/ha): 30
Plant response rating, Wheat ([7]; 125 g ai/ha): 35
Soybean plant response rating (soybean (Glycine max); [17]): 55
Plant response rating, Soybean (soybean (Glycine max); 62 g ai/ha): 98
Plant response rating, Soybean (soybean (Glycine max); 125 g ai/ha): 95
Galium plant response rating [8, 17]: 90
Plant response rating, Galium ([8]; 62 g ai/ha): 95
Plant response rating, Galium ([8]; 125 g ai/ha): 100
Johnsongrass plant response rating [9, 17]: 5
Plant response rating, Johnsongrass ([9]; 62 g ai/ha): 5
Plant response rating, Johnsongrass ([9]; 125 g ai/ha): 10
Oilseed Rape plant response rating [10, 17]: 80
Plant response rating, Oilseed Rape ([10]; 62 g ai/ha): 75
Plant response rating, Oilseed Rape ([10]; 125 g ai/ha): 95
Waterhemp plant response rating [11, 17]: 85
Plant response rating, Waterhemp ([11]; 62 g ai/ha): 98
Plant response rating, Waterhemp ([11]; 125 g ai/ha): 98
Corn plant response rating (corn (Zea mays); 16 g ai/ha): 10
Corn plant response rating (corn (Zea mays); 31 g ai/ha): 25
Plant response rating, Corn (corn (Zea mays); 62 g ai/ha): 10
Plant response rating, Corn (corn (Zea mays); 125 g ai/ha): 10
Nutsedge, Yellow plant response rating [12, 17]: 5
Plant response rating, Nutsedge, Yellow ([12]; 62 g ai/ha): 20
Plant response rating, Nutsedge, Yellow ([12]; 125 g ai/ha): 25
Ryegrass, Italian plant response rating [13, 17]: 5
Plant response rating, Ryegrass, Italian ([13]; 62 g ai/ha): 10
Plant response rating, Ryegrass, Italian ([13]; 125 g ai/ha): 15
Pigweed plant response rating [14, 17]: 95
Plant response rating, Pigweed ([14]; 62 g ai/ha): 98
Plant response rating, Pigweed ([14]; 125 g ai/ha): 98
Velvetleaf plant response rating [15, 17]: 80
Plant response rating, Velvetleaf ([15]; 62 g ai/ha): 75
Plant response rating, Velvetleaf ([15]; 125 g ai/ha): 100
Lambsquarters plant response rating [16, 17]: 100
Plant response rating, Lambsquarters ([16]; 62 g ai/ha): 100
Plant response rating, Lambsquarters ([16]; 125 g ai/ha): 100
